# Data reported in PubChem BioAssay (NCI).
#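 Results reflect a 48-hour exposure of cells in 96-well plates to compound at five concentrations. The concentration for 50% growth inhibition is given as GI50. TGI marks complete inhibition of growth.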
# Columns and labels:
# Assay in all cases: NCI anticancer screen, dose series, 48 h
# HOP-62 NSCLC = system: HOP-62 NSCLC
# NCI-H23 lung = system: NCI-H23 lung
# OVCAR-3 ovarian = system: OVCAR-3 ovarian
# MDA-MB-435 = system: MDA-MB-435
# HCT-15 colon = system: HCT-15 colon
# M14 melanoma = system: M14 melanoma
# BT-549 breast = system: BT-549 breast
# HCC-2998 colon = system: HCC-2998 colon
# SNB-19 CNS = system: SNB-19 CNS
# NCI/ADR-RES ovarian = system: NCI/ADR-RES ovarian
# SW-620 colon = system: SW-620 colon
# CAKI-1 renal = system: CAKI-1 renal
# SK-MEL-28 melanoma = system: SK-MEL-28 melanoma
# SR leukemia = system: SR leukemia
# PC-3 prostate = system: PC-3 prostate
# A549 NSCLC = system: A549 NSCLC
# HT29 colon = system: HT29 colon
# SK-OV-3 ovarian = system: SK-OV-3 ovarian
# SK-MEL-2 melanoma = system: SK-MEL-2 melanoma
# SF-295 CNS = system: SF-295 CNS
# SN12C renal = system: SN12C renal
# ACHN renal = system: ACHN renal
# HOP-92 NSCLC = system: HOP-92 NSCLC
# MDA-MB-231 breast = system: MDA-MB-231 breast
# MCF7 breast = system: MCF7 breast
# SF-268 CNS = system: SF-268 CNS
# T-47D breast = system: T-47D breast
# SNB-75 CNS = system: SNB-75 CNS
# UACC-257 melanoma = system: UACC-257 melanoma
# LOX IMVI melanoma = system: LOX IMVI melanoma
# TK-10 renal = system: TK-10 renal
# MALME-3M melanoma = system: MALME-3M melanoma
# OVCAR-8 ovarian = system: OVCAR-8 ovarian
# UO-31 renal = system: UO-31 renal
# COLO 205 colon = system: COLO 205 colon
# OVCAR-5 ovarian = system: OVCAR-5 ovarian
# RXF 393 renal = system: RXF 393 renal
# KM12 colon = system: KM12 colon
# HCT-116 colon = system: HCT-116 colon
# EKVX NSCLC = system: EKVX NSCLC
# HS 578T breast = system: HS 578T breast
# CCRF-CEM leukemia = system: CCRF-CEM leukemia
# 786-0 renal = system: 786-0 renal
# NCI-H226 lung = system: NCI-H226 lung
# NCI-H522 lung = system: NCI-H522 lung
# OVCAR-4 ovarian = system: OVCAR-4 ovarian
# IGROV1 ovarian = system: IGROV1 ovarian
# DU-145 prostate = system: DU-145 prostate
# MOLT-4 leukemia = system: MOLT-4 leukemia
# RPMI-8226 leukemia = system: RPMI-8226 leukemia
# NCI-H460 lung = system: NCI-H460 lung
# UACC-62 melanoma = system: UACC-62 melanoma
# SF-539 CNS = system: SF-539 CNS
# U251 CNS = system: U251 CNS
# A498 renal = system: A498 renal
compound,measurement,setting,value
N#Cc1c(NCc2ccccc2)nc(NCc2ccccc2)c(C#N)c1-c1cccc(O)c1,GI50,HOP-62 NSCLC,10.5 µM
same,TGI,HOP-62 NSCLC,23.1 µM
same,GI50,NCI-H23 lung,11 µM
same,TGI,NCI-H23 lung,37.4 µM
same,GI50,OVCAR-3 ovarian,3.31 µM
same,TGI,OVCAR-3 ovarian,19.4 µM
same,GI50,MDA-MB-435,2910 nM
same,TGI,MDA-MB-435,9.97 µM
same,GI50,HCT-15 colon,4.33 µM
same,TGI,HCT-15 colon,33.7 µM
same,GI50,M14 melanoma,6.65 µM
same,TGI,M14 melanoma,> 100 µM
same,GI50,BT-549 breast,10.1 µM
same,TGI,BT-549 breast,35.8 µM
same,GI50,HCC-2998 colon,95.5 µM
same,TGI,HCC-2998 colon,> 100 µM
same,GI50,SNB-19 CNS,17.1 µM
same,TGI,SNB-19 CNS,> 100 µM
same,GI50,NCI/ADR-RES ovarian,13.8 µM
same,TGI,NCI/ADR-RES ovarian,48 µM
same,GI50,SW-620 colon,4.49 µM
same,TGI,SW-620 colon,68.2 µM
same,GI50,CAKI-1 renal,2770 nM
same,TGI,CAKI-1 renal,19.4 µM
same,GI50,SK-MEL-28 melanoma,61 µM
same,TGI,SK-MEL-28 melanoma,> 100 µM
same,GI50,SR leukemia,2090 nM
same,TGI,SR leukemia,7.48 µM
same,GI50,PC-3 prostate,4.66 µM
same,TGI,PC-3 prostate,28.8 µM
same,GI50,A549 NSCLC,13.3 µM
same,TGI,A549 NSCLC,63.5 µM
same,GI50,HT29 colon,41.3 µM
same,TGI,HT29 colon,> 100 µM
same,GI50,SK-OV-3 ovarian,7.79 µM
same,TGI,SK-OV-3 ovarian,46.5 µM
same,GI50,SK-MEL-2 melanoma,6.23 µM
same,TGI,SK-MEL-2 melanoma,23 µM
same,GI50,SF-295 CNS,2920 nM
same,TGI,SF-295 CNS,13.2 µM
same,GI50,SN12C renal,2310 nM
same,TGI,SN12C renal,6.69 µM
same,GI50,ACHN renal,2630 nM
same,TGI,ACHN renal,11.7 µM
same,GI50,HOP-92 NSCLC,2510 nM
same,TGI,HOP-92 NSCLC,18.9 µM
same,GI50,MDA-MB-231 breast,2230 nM
same,TGI,MDA-MB-231 breast,7.34 µM
same,GI50,MCF7 breast,12.7 µM
same,TGI,MCF7 breast,88.4 µM
same,GI50,SF-268 CNS,19.5 µM
same,TGI,SF-268 CNS,46.5 µM
same,GI50,T-47D breast,4.03 µM
same,TGI,T-47D breast,> 100 µM
same,GI50,SNB-75 CNS,39.4 µM
same,TGI,SNB-75 CNS,> 100 µM
same,GI50,UACC-257 melanoma,> 100 µM
same,TGI,UACC-257 melanoma,> 100 µM
same,GI50,LOX IMVI melanoma,2960 nM
same,TGI,LOX IMVI melanoma,11.5 µM
same,GI50,TK-10 renal,4.11 µM
same,TGI,TK-10 renal,17.4 µM
same,GI50,MALME-3M melanoma,10.1 µM
same,TGI,MALME-3M melanoma,32.5 µM
same,GI50,OVCAR-8 ovarian,19.2 µM
same,TGI,OVCAR-8 ovarian,52.2 µM
same,GI50,UO-31 renal,6.12 µM
same,TGI,UO-31 renal,87.6 µM
same,GI50,COLO 205 colon,36.7 µM
same,TGI,COLO 205 colon,> 100 µM
same,GI50,OVCAR-5 ovarian,21.3 µM
same,TGI,OVCAR-5 ovarian,48 µM
same,GI50,RXF 393 renal,13.8 µM
same,TGI,RXF 393 renal,34.9 µM
same,GI50,KM12 colon,4.03 µM
same,TGI,KM12 colon,> 100 µM
same,GI50,HCT-116 colon,4.48 µM
same,TGI,HCT-116 colon,16.1 µM
same,GI50,EKVX NSCLC,11.6 µM
same,TGI,EKVX NSCLC,45 µM
same,GI50,HS 578T breast,3.76 µM
same,TGI,HS 578T breast,20.7 µM
same,GI50,CCRF-CEM leukemia,3.38 µM
same,TGI,CCRF-CEM leukemia,> 100 µM
same,GI50,786-0 renal,13 µM
same,TGI,786-0 renal,27.6 µM
same,GI50,NCI-H226 lung,2910 nM
same,TGI,NCI-H226 lung,7.86 µM
same,GI50,NCI-H522 lung,5.89 µM
same,TGI,NCI-H522 lung,33.1 µM
same,GI50,OVCAR-4 ovarian,23.6 µM
same,TGI,OVCAR-4 ovarian,> 100 µM
same,GI50,IGROV1 ovarian,19.7 µM
same,TGI,IGROV1 ovarian,41.1 µM
same,GI50,DU-145 prostate,12.8 µM
same,TGI,DU-145 prostate,34.4 µM
same,GI50,MOLT-4 leukemia,3.3 µM
same,TGI,MOLT-4 leukemia,> 100 µM
same,GI50,RPMI-8226 leukemia,3.11 µM
same,TGI,RPMI-8226 leukemia,22.6 µM
same,GI50,NCI-H460 lung,14.9 µM
same,TGI,NCI-H460 lung,31.4 µM
same,GI50,UACC-62 melanoma,2100 nM
same,TGI,UACC-62 melanoma,7.04 µM
same,GI50,SF-539 CNS,5.18 µM
same,TGI,SF-539 CNS,22.1 µM
same,GI50,U251 CNS,4.02 µM
same,TGI,U251 CNS,15.4 µM
same,GI50,A498 renal,2010 nM
same,TGI,A498 renal,5.77 µM
